One series concerns MX1. The series can be described thus: Knock down of MX1 in PBMCs by siRNA, qPCR and tumor killing. It counts as cell-based, human. Particulars: MX1 depletion by siRNA vs negative control oligonucleotides. Here is the method:
PBMCs were cultured in X-VIVO 15 medium (Lonza) supplemented with 10% Fetal Bovine Serum (Gemini), Penicillin-Streptomycin (Gibco), Antibiotic-Antimycotic (Gibco), 20 ng/ml recombinant human IL-7 (R&D), 50 U/ml recombinant human IL-2 (R&D) for one week. Then, TransIT-TKO kit (Mirus) was used to transient transfect MX1 siRNA into PBMCs. After 3 days of culture at 37° C., PBMCs were collected. A part of PBMCs co-incubated with tumor cells to test the killing effect of PBMCs after siRNA interference. The other part of PBMCs was extracted RNA with AllPrep DNA/RNA Kits (QIAGEN) and reverse transcription to cDNA with PrimeScript RT reagent Kit (Takara), and then used NovoStart SYBR qPCR SuperMix Plus (Novoprotein) performs qPCR to verify the efficiency of siRNA interference. The relative expressions of MX1 gene at the mRNA level was calculated by the 2-ΔΔCt method. GAPDH was used as a housekeeping gene.

The test system of series [1] is neoantigen-specific T-cell clones in blood. The series can be described thus: DNA-barcoded neoantigen-peptide-MHC tetramers with single-cell TCR sequencing (patient P6). It counts as cell-based, human. Particulars: blood of patient P6.

Take “5′-GCTTTGTGAATTACAGGACAT-3′ (only one strand given, further chemistry not given here) [MX1 siRNA, siRNA transiently transfected into PBMCs to knock down MX1]”: the “anti-tumor ability of immune cells in PBMC” value in the series with MX1 is on record as “remarkably impaired”.

On to “YVECGKAFK [neoantigen-peptide-85-epitopel]”, for which the “tetramer-positive T-cell clones (peptide-MHC HLA-A*11:01 tetramer)” value in series [1] is “No tetramer-positive T-cell clones”.

Values taken from US20250387425A1 (ANDA BIOLOGY MEDICINE DEVELOPMENT (SHENZHEN) CO., LTD., priority 2022, published 2025).
